Where “and” joins values, the source holds several entries; their conditions need not be identical. Equal entries are not always repeated.
Columns and labels:
Format in all cases: cell-based
[1] = system: malignant glioma DBTRG cells; assay: MTT cell viability assay on malignant glioma DBTRG cells; details: 24-hour group
Procedure: Thereafter, a cell viability assay, MTT assay, was utilized to analyze the viabilities of brain CSCs ^CD133+ and malignant glioma DBTRG cells. […] The results are shown in Figure 1A and Figure 1B for 24-hour group and 48-hour group (i.e., the treatment for 24 hours and 48 hours) and in Table 1 for 24-hour group.

[2] = system: ALDH; assay: ALDEFLUOR flow cytometry analysis of ALDH activity in HNC-TIC-like oral stem cells; details: DEAB-added group (150 µM DEAB), with or without BP treatment; Figure 8
Procedure: ALDH protein is also an important stemness-maintenance marker of cancer stem cells and participates in the regulation of the self-renewal and differentiation of cancer stem cells. HNC-TIC-like oral stem cells (i.e., ALDH1^+CD44^+-1 cell line or ALDH1^+CD44^+-2 cell line) were treated with different concentrations (0, 25 and 50 µg/ml) of BP for 24 hours, and then, 1 ×10^5 cells obtained from each group were separately suspended in 50 µl of a stem cell detection kit (i.e., ALDEFLUOR array kit, purchased from […] Technologies Inc., Vancouver, Canada) buffer and the cell suspension of each group was separately added with ALDEFLUOR to a final concentration of 1 µM. Thereafter, a sample of each group was stained by […] and then analyzed by flow cytometry analysis to determine the ALDH activity of HNC-TIC-like oral stem cells (i.e., ALDH1^+CD44^+-1 cell line and ALDH1^+CD44^+-2 cell line).
The above experimental procedure was repeated, but the cell suspension of each group was further added with N,N-diethylaminobenzaldehyde (DEAB, i.e., an inhibitor of ALDH) to a final concentration of 150 µM of DEAB separately.

[3] = system: brain CSCs ^CD133+; assay: MTT cell viability assay on brain CSCs CD133+; details: 24-hour group, MTT assay; read-out: IC50 to brain CSCs ^CD133+
Description: Thereafter, a cell viability assay, MTT assay, was utilized to analyze the viabilities of brain CSCs ^CD133+ and malignant glioma DBTRG cells. […]

SMILES: O=NN(CCCl)C(=O)NCCCl [BCNU, bis-chloroethylnitrosourea]
- IC50 [1]: 352 µM and 75.4 µg/mL

SMILES: CCN(CC)c1ccc(C=O)cc1 [DEAB, N,N-diethylaminobenzaldehyde, reference compound]
- live cells with ALDH activity, of total live cells [2]: 0.1%

SMILES: Cn1nnc2c(C(N)=O)ncn2c1=O [TMZ, temozolomide, reference compound]
- IC50 [3]: > 1.6 mM and > 311 µg/mL
- IC50 [1]: 1.66 mM and 322 µg/mL

From patent publication EP3338775B1, “USE OF BUTYLIDENEPHTHALIDE” (Everfront Biotech Inc., priority 2015, dated 2017)
